# Patent US12662491B2 (Redona Therapeutics, Inc., priority 2020, dated 2026)
# Structures can show the parent of a compound that is named as a salt.
# Molecular target: T1, Zcchc11 enzyme (Homo sapiens, UniProt Q5TAX3)
# T1 construct: made in house; host or cells: HEK293 cells (Zcchc11); E. coli Rosetta II (LIN28A)
# T1 sequence (Q5TAX3 212-1420): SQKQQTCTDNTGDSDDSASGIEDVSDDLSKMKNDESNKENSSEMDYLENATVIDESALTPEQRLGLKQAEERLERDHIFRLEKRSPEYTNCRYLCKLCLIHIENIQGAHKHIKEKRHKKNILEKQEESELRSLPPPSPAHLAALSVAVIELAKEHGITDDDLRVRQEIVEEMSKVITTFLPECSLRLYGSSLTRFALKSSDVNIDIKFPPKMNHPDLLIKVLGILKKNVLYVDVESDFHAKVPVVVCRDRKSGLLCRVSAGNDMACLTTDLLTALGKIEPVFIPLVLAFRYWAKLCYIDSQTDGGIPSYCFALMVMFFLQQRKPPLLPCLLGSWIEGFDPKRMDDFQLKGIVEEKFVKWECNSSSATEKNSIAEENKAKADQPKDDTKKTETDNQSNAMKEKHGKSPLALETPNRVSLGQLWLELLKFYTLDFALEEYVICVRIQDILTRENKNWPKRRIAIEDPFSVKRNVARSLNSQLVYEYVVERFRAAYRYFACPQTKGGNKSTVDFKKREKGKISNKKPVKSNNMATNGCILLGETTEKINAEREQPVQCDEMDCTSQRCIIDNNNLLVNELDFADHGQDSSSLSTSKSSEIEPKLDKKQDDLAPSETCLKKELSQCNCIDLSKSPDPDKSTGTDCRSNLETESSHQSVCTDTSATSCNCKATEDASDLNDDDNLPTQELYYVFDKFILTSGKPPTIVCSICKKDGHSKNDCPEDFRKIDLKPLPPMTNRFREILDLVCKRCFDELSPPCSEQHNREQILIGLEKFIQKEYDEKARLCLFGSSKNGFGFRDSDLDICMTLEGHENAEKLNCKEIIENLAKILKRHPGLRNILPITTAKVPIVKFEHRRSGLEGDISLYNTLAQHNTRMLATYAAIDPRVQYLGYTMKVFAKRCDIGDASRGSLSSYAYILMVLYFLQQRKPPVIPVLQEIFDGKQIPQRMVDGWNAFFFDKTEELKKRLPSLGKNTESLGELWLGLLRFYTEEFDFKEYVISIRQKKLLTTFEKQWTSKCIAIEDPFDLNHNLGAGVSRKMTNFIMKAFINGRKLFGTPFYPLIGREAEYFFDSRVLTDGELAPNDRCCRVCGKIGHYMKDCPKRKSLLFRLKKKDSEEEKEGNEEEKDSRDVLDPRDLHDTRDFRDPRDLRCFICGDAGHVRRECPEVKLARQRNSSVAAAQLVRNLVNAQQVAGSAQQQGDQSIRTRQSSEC
# Assay: TUTase assay (Zcchc11 assay, Lin28a-dependent polyuridylation of pre-let-7)
# Type: biochemical
# Details: LIN28A 10 nM, Zcchc11 0.2 nM, 5′-fluorescein pre-let-7 miRNA 2 nM, UTP 5 uM, room temperature, 30 minutes pre-incubation; read-out: Potency Lin28a-dep Z11 IC50
# In short: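 HEK293-expressed human Zcchc11 (residues 212-1420, 0.2 nM) with 10 nM LIN28A and 2 nM 5′-fluorescein pre-let-7, preincubated 30 min at room temperature, pH 7.3. Started with 5 uM UTP; poly(U) tails quenched by 3′-rhodamine A20 probe, read kinetically. IC50 from early-rate four-parameter fit; no-UTP wells define 0%.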
row,IC50 [µM],Compound
1,1 to 10,"CC1(n2cc(C(=O)O)c(=O)c3cc(Cl)c(N4CCC[C@@H]4COc4ncccc4Cl)c(F)c32)CC1 [Example 9, (R)-6-chloro-7-(2-(((3-chloropyridin-2-yl)oxy)methyl)pyrrolidin-1-yl)-8-fluoro-1-(1-methylcyclopropyl)-4-oxo-1,4-dihydroquinoline-3-carboxylic acid]"
2,≤ 1,"CCS(=O)(=O)Nc1ccc(-n2cc(C(=O)O)c(=O)c3cc(Cl)c(N4CCC[C@@H]4COc4ncccc4Cl)cc32)cc1 [Example 31, (R)-6-chloro-7-(2-(((3-chloropyridin-2-yl)oxy)methyl)pyrrolidin-1-yl)-1-(4-(ethylsulfonamido)phenyl)-4-oxo-1,4-dihydroquinoline-3-carboxylic acid]"

# Same assay, conditions: Lin28a-dependent Zcchc11 (Z11) TUTase activity; read-out: Potency Lin28a-dep Z11 IC50
row,IC50 [µM],Compound
1,1 to 10,"CN(C)C1CN(c2ccc(-n3cc(C(=O)O)c(=O)c4cc(C#N)c(N5C(COc6ncccc6F)CCC5(C)C)cc43)cn2)C1 (stereo not drawn) [Compound 264, 6-cyano-1-(6-(3-(dimethyl-amino)azetidin-1-yl)pyridin-3-yl)-7-(5-(((3-fluoropyridin-2-yl)oxy)methyl)-2,2-dimethyl-pyrrolidin-1-yl)-4-oxo-1,4-dihydro-quinoline-3-carboxylic acid]"
2,≤ 1,"CN(C)C1CN(c2ccc(-n3cc(C(=O)O)c(=O)c4cc(Cl)c(N5CC(F)(F)C[C@@H]5COc5ncccc5Cl)cc43)cn2)C1 (racemic) [Compound 305, rac-(R)-6-chloro-7-(2-(((3-chloropyridin-2-yl)oxy)methyl)-4,4-difluoro-pyrrolidin-1-yl)-1-(6-(3-(dimethyl-amino)azetidin-1-yl)pyridin-3-yl)-4-oxo-1,4-dihydro-quinoline-3-carboxylic acid]"
3,≤ 1,"COc1ccc(Cl)c(OC[C@H]2CCCN2c2cc3c(cc2C)c(=O)c(C(=O)O)cn3-c2ccc(N3CC(N(C)C)C3)nc2)n1 [Compound 206, (R)-7-(2-(((3-chloro-6-methoxy-pyridin-2-yl)oxy)methyl)pyrrolidin-1-yl)-1-(6-(3-(dimethyl-amino)azetidin-1-yl)pyridin-3-yl)-6-methyl-4-oxo-1,4-dihydro-quinoline-3-carboxylic acid]"
4,≤ 1,"CN(C)C1CN(c2ccc(-n3cc(C(=O)O)c(=O)c4cc(C#N)c(N5C[C@@H]6C[C@@H]6C5COc5ncccc5F)cc43)cn2)C1 (stereo partly drawn) [Compound 293, 6-cyano-1-(6-(3-(dimethyl-amino)azetidin-1-yl)pyridin-3-yl)-7-((1S,5R)-2-(((3-fluoropyridin-2-yl)oxy)methyl)-3-azabicyclo [3.1.0]hexan-3-yl)-4-oxo-1,4-dihydro-quinoline-3-carboxylic acid]"
5,1 to 10,"Cc1cccc(F)c1-n1cc(C(=O)O)c(=O)c2cc(F)c(N3CCC[C@@H]3COc3ccccn3)cc21 [Compound 154, (R)-6-fluoro-1-(2-fluoro-6-methylphenyl)-4-oxo-7-(2-((pyridin-2-yloxy)methyl)pyrrolidin-1-yl)-1,4-dihydro-quinoline-3-carboxylic acid]"
6,≤ 1,"CN(C)C1CN(c2ccc(-n3cc(C(=O)O)c(=O)c4cc(C#N)c(N5C6CCC5(COc5ncccc5F)CC6)cc43)cn2)C1 [Compound 181, 6-cyano-1-(6-(3-(dimethyl-amino)azetidin-1-yl)pyridin-3-yl)-7-(1-(((3-fluoropyridin-2-yl)oxy)methyl)-7-azabicyclo [2.2.1]heptan-7-yl)-4-oxo-1,4-dihydro-quinoline-3-carboxylic acid]"
7,≤ 1,"COc1ccc(Cl)c(OC[C@H]2C[C@H]3C[C@H]3N2c2cc3c(cc2Cl)c(=O)c(C(=O)O)cn3-c2ccnc(N)c2)n1 [Compound 198, 1-(2-aminopyridin-4-yl)-6-chloro-7-((1R,3R,5R)-3-(((3-chloro-6-methoxy-pyridin-2-yl)oxy)methyl)-2-azabicyclo [3.1.0]hexan-2-yl)-4-oxo-1,4-dihydro-quinoline-3-carboxylic acid]"
8,≤ 1,"Nc1ccc(-n2cc(C(=O)O)c(=O)c3cc(Cl)c(N4CC(c5ccccn5)C[C@@H]4COc4ncccc4Cl)cc32)cn1 (mixture of isomers) [Compound 180, rac-1-(6-aminopyridin-3-yl)-6-chloro-7-((2R)-2-(((3-chloropyridin-2-yl)oxy)methyl)-4-(pyridin-2-yl)pyrrolidin-1-yl)-4-oxo-1,4-dihydro-quinoline-3-carboxylic acid]"

# Same assay, conditions: Lin28a-dependent Zcchc11 (Z11) TUTase assay; read-out: Potency Lin28a-dep Z11 IC50
row,IC50 [µM],Compound
1,≤ 1,"CNCCOc1ccc(-n2cc(C(=O)O)c(=O)c3cc(Cl)c(N4CCC[C@@H]4COc4ncccc4Cl)cc32)cn1 [Example 480, (R)-6-chloro-7-(2-(((3-chloropyridin-2-yl)oxy)methyl)pyrrolidin-1-yl)-1-(6-(2-(methyl-amino)ethoxy)pyridin-3-yl)-4-oxo-1,4-dihydroquinoline-3-carboxylic acid hydrochloride]"
2,1 to 10,"Cc1cccnc1OC[C@H]1CCCN1c1cc2c(cc1Cl)c(=O)c(C(=O)O)cn2C1(C)CCC1 [Example 455, (R)-6-chloro-1-(1-methylcyclobutyl)-7-(2-(((3-methylpyridin-2-yl)oxy)methyl)pyrrolidin-1-yl)-4-oxo-1,4-dihydroquinoline-3-carboxylic acid]"
3,≤ 1,"O=C(O)c1cn(-c2cnn(CCN3CCC3)c2)c2cc(N3CCC[C@@H]3COc3ncccc3Cl)c(Cl)cc2c1=O [Example 479, (R)-1-(1-(2-(azetidin-1-yl)ethyl)-1H-pyrazol-4-yl)-6-chloro-7-(2-(((3-chloropyridin-2-yl)oxy)methyl)pyrrolidin-1-yl)-4-oxo-1,4-dihydroquinoline-3-carboxylic acid]"
4,≤ 1,"CN(C)C1CN(c2ccc(-n3cc(C(=O)O)c(=O)c4cc(Cl)c(N5CCC[C@]5(C)COc5ncccc5Cl)cc43)cn2)C1 [Example 627, (R)-6-chloro-7-(2-(((3-chloropyridin-2-yl)oxy)methyl)-2-methylpyrrolidin-1-yl)-1-(6-(3-(dimethylamino)azetidin-1-yl)pyridin-3-yl)-4-oxo-1,4-dihydroquinoline-3-carboxylic acid]"
5,≤ 1,"Nc1cc(F)c(-n2cc(C(=O)O)c(=O)c3cc(Cl)c(N4CCC[C@@H]4COc4ncccc4Cl)cc32)cn1 [Example 586, (R)-1-(6-amino-4-fluoropyridin-3-yl)-6-chloro-7-(2-(((3-chloropyridin-2-yl)oxy)methyl)pyrrolidin-1-yl)-4-oxo-1,4-dihydroquinoline-3-carboxylic acid]"
6,1 to 10,"Cc1cccnc1OC[C@H]1CCCN1c1cc2c(cc1Cl)c(=O)c(C(=O)O)cn2C1(C)CCOCC1 [Example 459, (R)-6-chloro-7-(2-(((3-methylpyridin-2-yl)oxy)methyl)pyrrolidin-1-yl)-1-(4-methyltetra-hydro-2H-pyran-4-yl)-4-oxo-1,4-dihydroquinoline-3-carboxylic acid]"
7,≤ 1,"O=C(O)c1cn(-c2cnccn2)c2cc(N3CCC[C@@H]3COc3ncccc3Cl)c(Cl)cc2c1=O [Example 425, (R)-6-chloro-7-(2-(((3-chloropyridin-2-yl)oxy)methyl)pyrrolidin-1-yl)-4-oxo-1-(pyrazin-2-yl)-1,4-dihydroquinoline-3-carboxylic acid]"
8,1 to 10,"O=C(O)c1cn(-c2ccc(O)cc2F)c2cc(N3CCC[C@@H]3COc3ccccn3)c(F)cc2c1=O [Example 381, (R)-6-fluoro-1-(2-fluoro-4-hydroxyphenyl)-4-oxo-7-(2-((pyridin-2-yloxy)methyl)pyrrolidin-1-yl)-1,4-dihydroquinoline-3-carboxylic acid]"
